Test results: the supplement of paper PMC7840683
± gives the standard deviation of the averaged measurements.

System: HepaRG
Assay: LDH release cytotoxicity, % of total lysis control; higher = more cytotoxic
Details: 48 h
In short: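 Single-lot HepaRG cells in collagen I-coated 96-well plates were treated for 48 h in serum-free induction medium containing 0.5% DMSO with test chemicals in eight-point half-log series up to 100 µM. For total lysis, wells received 0.1% Triton X. LDH in 50 µL spent medium was assayed by resorufin fluorescence with CytoTox-ONE. Percent cytotoxicity was normalized to the on-plate vehicle and total lysis controls, with duplicates averaged.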

| Compound | LDH release cytotoxicity (0.03162 µM) [%] | LDH release cytotoxicity (0.1 µM) [%] | LDH release cytotoxicity (0.3162278 µM) [%] | LDH release cytotoxicity (1 µM) [%] | LDH release cytotoxicity (3.16228 µM) [%] | LDH release cytotoxicity (10 µM) [%] | LDH release cytotoxicity (31.6228 µM) [%] | LDH release cytotoxicity (100 µM) [%] | LDH release cytotoxicity (0.0327296 µM) [%] | LDH release cytotoxicity (0.1035 µM) [%] | LDH release cytotoxicity (0.327296 µM) [%] | LDH release cytotoxicity (1.035 µM) [%] | LDH release cytotoxicity (3.27296 µM) [%] | LDH release cytotoxicity (10.35 µM) [%] | LDH release cytotoxicity (32.729574 µM) [%] | LDH release cytotoxicity (103.5 µM) [%] |
| --- | --- | --- | --- | --- | --- | --- | --- | --- | --- | --- | --- | --- | --- | --- | --- | --- |
| Clc1cc(Cl)c(Cl)cc1Cl [1,2,4,5-Tetrachlorobenzene] | -1.15 ± 0.52 | -1.29 ± 0.64 | -0.238 ± 1.4 | -1.08 ± 0.043 | -0.932 ± 0.35 | -0.175 ± 0.34 | -0.116 ± 0.54 | 1.14 ± 0.66 |  |  |  |  |  |  |  |  |
| Clc1ccc(Cl)c(Cl)c1 [1,2,4-Trichlorobenzene] | -0.83 ± 0.22 | -0.799 ± 0.65 | -1.05 ± 0.33 | -0.848 ± 0.19 | -1.46 ± 0.75 | -0.626 ± 0.011 | -0.776 ± 0.65 | -0.785 ± 0.46 |  |  |  |  |  |  |  |  |
| Cc1ccc(C)c(C)c1 [1,2,4-Trimethylbenzene] | -1.1 ± 0.13 | -1.09 ± 0.14 | -1.49 ± 0.63 | -1.38 ± 0.46 | -0.646 ± 0.4 | -0.854 ± 0.4 | 0.161 ± 0.23 | 1.55 ± 0.46 |  |  |  |  |  |  |  |  |
| O=Cc1ccccc1C=O [1,2-Benzenedicarboxaldehyde] | -1.01 ± 0.34 | -0.945 ± 0.21 | -1.43 ± 0.23 | -0.52 ± 1.3 | -0.768 ± 0.29 | -0.0584 ± 0.28 | 1.36 ± 0.23 | 7.96 ± 1.3 |  |  |  |  |  |  |  |  |
| O=c1[nH]sc2ccccc12 [1,2-Benzisothiazolin-3-one] |  |  |  |  |  |  |  |  | -0.0461 ± 1.4 | -0.556 ± 0.24 | -0.331 ± 0.21 | -0.299 ± 0.034 | -0.612 ± 0.23 | -0.701 ± 0.032 | 0.567 ± 0.56 | 2.85 ± 2.2 |
| Clc1ccccc1Cl [1,2-Dichlorobenzene] | -1.68 ± 0.72 | -1.12 ± 0.22 | -2 ± 0.56 | -1.81 ± 0.094 | -1.83 ± 0.1 | -1.2 ± 0.57 | -1.06 ± 0.67 | -0.133 ± 0.15 |  |  |  |  |  |  |  |  |
| Cc1cccc([N+](=O)[O-])c1C [1,2-Dimethyl-3-nitrobenzene] | 0.0499 ± 0.58 | -0.56 ± 0.35 | -0.0544 ± 1 | 0.0899 ± 0.093 | -0.155 ± 0.3 | 2.03 ± 0.56 | 1.1 ± 0.079 | 1.87 ± 0.3 |  |  |  |  |  |  |  |  |
| Cc1ccc([N+](=O)[O-])cc1C [1,2-Dimethyl-4-nitrobenzene] | -1.16 ± 0.66 | -1.81 ± 0.53 | -1.44 ± 0.14 | -1.1 ± 0.27 | -1.56 ± 0.13 | -1.07 ± 0.013 | -0.524 ± 0.73 | 0.459 ± 1.3 |  |  |  |  |  |  |  |  |
| c1ccc(NNc2ccccc2)cc1 [1,2-Diphenylhydrazine] | -1.61 ± 1.4 | -1.5 ± 0.65 | -1.76 ± 0.62 | -2.09 ± 1.2 | -1.82 ± 0.17 | -1.49 ± 0.079 | -1.72 ± 0.59 | -0.591 ± 1 |  |  |  |  |  |  |  |  |
| Nc1ccccc1N [1,2-Phenylenediamine] | -3.74 ± 0.12 | -3.27 ± 0.9 | -2.8 ± 0.61 | -1.88 ± 0.13 | -3.1 ± 0.2 | -2.74 ± 0.21 | -2.23 ± 1.2 | -1.05 ± 2.2 |  |  |  |  |  |  |  |  |
| CC(O)CO (configuration not stated) [1,2-Propylene glycol] | -1.3 ± 0.42 | -0.939 ± 1.1 | -1.49 ± 0.33 | -1.94 ± 0.42 | -1.55 ± 0.095 | -1.06 ± 0.055 | -1.08 ± 0.23 | 0.548 ± 0.21 |  |  |  |  |  |  |  |  |
| Cc1cc(C)cc(C)c1 [1,3,5-Trimethylbenzene] | -1.84 ± 0.57 | -1.84 ± 0.86 | -2.21 ± 0.96 | -2.65 ± 0.24 | -2.52 ± 0.57 | -1.42 ± 0.71 | -0.727 ± 0.4 | 1.41 ± 0.37 |  |  |  |  |  |  |  |  |
| Nc1cccc(N)c1 [1,3-Benzenediamine] | -1.18 ± 0.7 | -2.11 ± 0.27 | -1.93 ± 0.12 | -1.36 ± 0.52 | -1 ± 0.48 | -0.806 ± 0.47 | -1.17 ± 0.023 | 0.323 ± 1.3 |  |  |  |  |  |  |  |  |
| O=C(O)c1cccc(C(=O)O)c1 [1,3-Benzenedicarboxylic acid] | -2.12 ± 0.44 | -1.69 ± 0.34 | -1.63 ± 0.21 | -2.28 ± 0.37 | -2.24 ± 0.28 | -1.69 ± 0.35 | 0.0627 ± 0.62 | 4.89 ± 0.58 |  |  |  |  |  |  |  |  |
| CC(O)CCO (configuration not stated) [1,3-Butanediol] | -2.25 ± 1.4 | -2.15 ± 1.1 | -2.36 ± 0.29 | -2.52 ± 0.74 | -2.18 ± 0.92 | -2.33 ± 0.35 | -1.67 ± 0.8 | -0.781 ± 0.99 |  |  |  |  |  |  |  |  |
| CC1(C)C(=O)N(Br)C(=O)N1Br [1,3-Dibromo-5,5-dimethylhydantoin] | -0.925 ± 1.3 | -0.284 ± 1.3 | -0.732 ± 0.032 | -1.11 ± 0.88 | -0.698 ± 0.06 | 0.338 ± 1.5 | -0.0587 ± 0.89 | 0.735 ± 0.36 |  |  |  |  |  |  |  |  |
| OC(CCl)CCl [1,3-Dichloro-2-propanol] | -0.194 ± 0.51 | -0.771 ± 0.2 | -1.03 ± 0.57 | -0.871 ± 0.15 | -0.223 ± 0.23 | -0.32 ± 0.6 | 0.161 ± 0.38 | -0.702 ± 0.99 |  |  |  |  |  |  |  |  |
| CC1(C)C(=O)N(Cl)C(=O)N1Cl [1,3-Dichloro-5,5-dimethylhydantoin] | 0.112 ± 0.0031 | -1.567 ± 0.014 | -0.979 ± 0.12 | -0.604 ± 0.23 | -0.443 ± 0.098 | -0.243 ± 0.15 | 1.54 ± 2 | 0.626 ± 0.89 |  |  |  |  |  |  |  |  |
| Clc1cccc(Cl)c1 [1,3-Dichlorobenzene] | -0.441 ± 1.9 | -1.62 ± 0.022 | -0.906 ± 0.34 | -1.05 ± 0.054 | -1.07 ± 0.023 | 0.199 ± 1.1 | 3.191 ± 0.028 | 25.9 ± 0.28 |  |  |  |  |  |  |  |  |
